The values below are quoted from earlier work in patent US6362169B1 (priority 1998, dated 2002).

In the data set the test system is Helicobacter pylori. Conditions: combination use with a proton pump inhibitor or a bismuth preparation (WO 97/02039).

With `CO[C@H]1/C=C/O[C@@]2(C)Oc3c(C)c(O)c4c(c3C2=O)C2=NC3(CCN(CC(C)C)CC3)NC2=C(NC(=O)/C(C)=C\C=C\[C@H](C)[C@H](O)[C@@H](C)[C@@H](O)[C@@H](C)[C@H](OC(C)=O)[C@@H]1C)C4=O` [Rifabutin, rifabutin], the “effect on minimum inhibitory concentration by combination use” value was “synergistic effect”.
